Data: US5242680A, “Thiol-reactive maleimido-based radiolabeling reagents” (Merck & Co., Inc., priority 1991, dated 1993)

Tests used:
[1] = target: T1, adenylate cyclase (PTH receptor) in human SaOS-2/B10 cells (Homo sapiens, UniProt Q03431); assay: Adenylate cyclase assay, human osteosarcoma B10 cell line (SaOS-2/B10); assay type: cell-based; details: mean ± SEM, at least three experiments
T1 construct: endogenous in cells; host or cells: SaOS-2/B10 human osteosarcoma cells
T1 sequence (Q03431 27-593): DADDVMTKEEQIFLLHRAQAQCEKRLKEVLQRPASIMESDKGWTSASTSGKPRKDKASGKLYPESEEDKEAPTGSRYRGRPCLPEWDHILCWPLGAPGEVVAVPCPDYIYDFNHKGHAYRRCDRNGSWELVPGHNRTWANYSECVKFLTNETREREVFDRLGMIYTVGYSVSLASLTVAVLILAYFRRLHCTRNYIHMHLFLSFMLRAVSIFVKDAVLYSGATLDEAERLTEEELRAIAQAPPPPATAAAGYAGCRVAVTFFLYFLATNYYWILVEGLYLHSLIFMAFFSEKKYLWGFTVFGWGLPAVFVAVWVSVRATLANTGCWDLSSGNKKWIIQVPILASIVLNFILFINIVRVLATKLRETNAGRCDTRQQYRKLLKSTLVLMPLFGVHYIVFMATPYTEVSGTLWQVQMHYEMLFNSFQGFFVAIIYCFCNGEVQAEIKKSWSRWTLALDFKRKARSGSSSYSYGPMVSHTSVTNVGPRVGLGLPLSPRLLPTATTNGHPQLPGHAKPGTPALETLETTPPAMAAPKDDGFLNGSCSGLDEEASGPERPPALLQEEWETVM
Experimental: (§1) SaSO-2/B10 cells cultures. The details of maintenance of this cell line in culture were reported previously (see Chorev, M., et al., Intl. J. Peptide & Protein Res. 36, 465-470 (1990)).
(§2) PTH Receptor Binding and Adenylate Cyclase Assays. Kidney-based assays were performed with bovind renal cortical membranes following the procedures previously described (see Goldman, M. E., et al., Endocrinol. 123, 1468-1475 (1988)). Bone-based assays were performed with human SaOS-2/B10 cell cultures. Cyclic AMP was measured using the reported procedure (see Rodan, S. B., et al., J. Clin. Invest. 72, 1511-1515 (1983)), including modifications reported previously (see Chorev. M., et al., Intl. J. Peptide & Protein Res. 36, 465-470 (1990)). Receptor binding affinities for PTHrP analogs were obtained using cells plated in 24-wall dished in RPMI 1640 medium supplemented with 1% BSA, 20 mM HEPES, pH 7.5, and 0.1% azide. [Nle^8,^18, mono-^123 I-Tyr^4 ]bPTH(1-34)NH2 (50,000 cpm/well) was added to confluent monolayers in the absence or presence of varying amounts of analog in a final volume of 0.25 ml. Cultures were incubated at room temperature for 4 hours. Binding reactions were terminated by placing the cultures on ice and washing 4 times with ice cold phosphate buffered saline. Radioactivity associated with the cells was recovered by dissolving the cells in 1 ml of 1N NaOH.
(§3) Data analysis. Inhibition constants for binding (Kb) and adenylate cyclase (Kl) were calculated following a published method (see Cheng, Y. C., et al., Biochem. Pharmacol. 22, 3099-3108 (1973)).

[2] = target: T2, PTH receptor (Homo sapiens, UniProt Q03431); assay: PTH receptor binding, human osteosarcoma B10 cell line (SaOS-2/B10); details: inhibiting binding of 95 pM 125I-[Nle8,18,Tyr34]bPTH(1-34)NH2 (footnote a), mean ± SEM, at least three experiments, read-out: Binding Kb
T2 construct: endogenous in cells; host or cells: SaOS-2/B10 human osteosarcoma cells
T2 sequence (Q03431 27-593): T1 sequence (Q03431 27-593)
Experimental: as §1, §2, §3

[3] = target: T3, PTH receptor (Bos taurus, UniProt Q1LZF7); assay: PTH receptor binding, bovine renal cortical membranes; details: inhibiting binding of 25 nM 125I-[Nle8,18,Tyr34]bPTH(1-34)NH2 (footnote c), mean ± SEM, at least three experiments, read-out: Binding Kb
T3 construct: from tissue; host or cells: bovine renal cortical membranes
T3 sequence (Q1LZF7 29-589): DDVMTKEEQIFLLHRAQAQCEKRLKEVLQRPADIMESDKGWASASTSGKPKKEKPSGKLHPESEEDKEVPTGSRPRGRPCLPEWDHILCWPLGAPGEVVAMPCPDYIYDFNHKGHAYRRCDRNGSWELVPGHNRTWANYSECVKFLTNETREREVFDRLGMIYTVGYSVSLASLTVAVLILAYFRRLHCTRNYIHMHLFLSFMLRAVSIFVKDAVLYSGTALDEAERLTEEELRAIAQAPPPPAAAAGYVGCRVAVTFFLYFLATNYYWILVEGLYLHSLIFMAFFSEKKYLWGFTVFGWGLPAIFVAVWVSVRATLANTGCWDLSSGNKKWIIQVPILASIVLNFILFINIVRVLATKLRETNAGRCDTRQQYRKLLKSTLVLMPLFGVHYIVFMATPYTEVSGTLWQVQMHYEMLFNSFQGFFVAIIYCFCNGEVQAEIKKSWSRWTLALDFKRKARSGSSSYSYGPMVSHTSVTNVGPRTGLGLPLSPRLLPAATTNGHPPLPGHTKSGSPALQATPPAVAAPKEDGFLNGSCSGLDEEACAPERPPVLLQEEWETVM
Experimental: as §2, §3

[4] = target: T4, adenylate cyclase (PTH receptor) in bovine renal cortical membranes (Bos taurus, UniProt Q1LZF7); assay: Adenylate cyclase assay, bovine renal cortical membranes; assay type: biochemical; details: mean ± SEM, at least three experiments
T4 construct: from tissue; host or cells: bovine renal cortical membranes
T4 sequence (Q1LZF7 29-589): T3 sequence (Q1LZF7 29-589)
Experimental: as §2, §3

## Ac[Cys^8 (S-2'-(N-succinyl-β-alanyl-3-idotyramide), Leu^11, D-Trp^12 ]-PTHrP(8-34)NH2 [analog 2A]
[1]; antagonizing 0.25 nM [Nle8,18,Tyr34]bPTH(1-34)NH2 (footnote b)
  Ki: 2.8 ± 1 nM
[2]
  Ki: 2.4 ± 0.5 nM
[3]
  Ki: 2 ± 0.1 nM
[4]; antagonizing 3 nM [Nle8,18,Tyr34]bPTH(1-34)NH2 (footnote d)
  Ki: 22 ± 5 nM

## [Cys^35 (S-2'-(N-succinyl-β-alanyl-3-iodotyramide)]PTHrP (1-35)NH2 [analog 1A]
[1]
  Km: 0.5 ± 0.04 nM
[2]
  Ki: 4.2 ± 0.7 nM
[3]
  Ki: 14 ± 2 nM
[4]
  Km: 36 ± 7 nM

## [Nle^8,18,Lys^13 (ε-Biotinyl),Tyr^34,Cys^35 (S-2'-(N-succinyl-β-alanyl-3-iodotyramide)]bPTH(1-35)NH2 [analog 3A]
[1]
  Km: 0.5 ± 0.06 nM
[2]
  Ki: 1.7 ± 0.2 nM
[3]
  Ki: 2 ± 0.2 nM
[4]
  Km: 6.4 ± 0.7 nM
